# Results: US20110009628A1, “Compounds and Compositions for Modulating Lipid Levels and Methods of Preparing Same” (priority 2009, published 2011)
# System: LDLR mRNA expression in HepG2 cells
# Assay: LDLR mRNA expression in HepG2 cells, quantitative real-time RT-PCR (Example 7)
# Assay type: cell-based, human
# Conditions: dose less than or equal to 10 μM, 24 hours
# Protocol: In yet another experiment, HepG2 cells were treated with various compounds for 24 hours at the indicated doses. Total RNA was isolated and 2 μg was used to generate cDNA in a reaction containing random primers and M-MLV at 37° C. for 1 hour in a volume of 25 μL. Real-time PCR was performed on the cDNA using MCEP REALPLEX 2 SYSTEM (Eppendorf) and Universal MasterMix (Applied Biosystems). Human LDLR and GAPDH Pre-Developed TaqMan Assay Reagents (Applied Biosystems) were used to assess the levels of mRNA expressions in HepG2. The levels of LDLR mRNA were normalized to that of GAPDH. Each RNA samples was assayed in triplicate. The abundance of LDLR mRNA in untreated cells was defined as 1, and the amounts of LDLR mRNA from compound-treated cells were plotted relative to that value in FIG. 2B. The data shown are mean±s.d.
# Activities of some compounds of Formulas I, II and EE on LDLR mRNA expression were determined. HepG2 cells were treated with new compounds individually at a dose less than or equal to 10 μM for 24 hours. […] In these experiments, berberine chloride was included for comparison.
row,Compound,Activity on LDLR mRNA expression (Fold of control)
1,"COc1ccc2c(c1Oc1ccc([N+](=O)[O-])cn1)CN1CCc3cc4c(cc3C1C2)OCO4 (centres unmarked) [Compound 96, 10-methoxy-9-(5-nitro(2-pyridyl)oxy)-5,6,7,8,13,13a-hexahydro-2H-1,3-dioxolano [4,5-g]isoquinolino[3,2-a]isoquinoline]",1.33 ± 0.05 Fold of control
2,"COc1ccc2c(c1OS(=O)(=O)c1cccc3cccnc13)CN1CCc3cc4c(cc3C1C2)OCO4 (centres unmarked) [Compound 66, 10-methoxy-5,6,7,8,13,13a-hexahydro-2H-1,3-dioxolano[4,5-g]isoquinolino[3,2-a]isoquinolin-9-yl quinoline-8-sulfonate]",2.54 ± 0.06 Fold of control
3,"COc1ccc2c(c1Oc1ncc([N+](=O)[O-])cc1C)CN1CCc3cc4c(cc3C1C2)OCO4 (centres unmarked) [Compound 94, 10-methoxy-9-(3-methyl-5-nitro(2-pyridyl)oxy)-5,6,7,8,13,13a-hexahydro-2H-1,3-dioxolano[4,5-g]isoquinolino[3,2-a]isoquinoline]",1.22 ± 0.18 Fold of control
4,"COc1ccc2c(c1OS(=O)(=O)c1cccc([N+](=O)[O-])c1)CN1CCc3cc4c(cc3C1C2)OCO4 (centres unmarked) [Compound 63, 10-methoxy-5,6,7,8,13,13a-hexahydro-2H-1,3-dioxolano[4,5-g]isoquinolino[3,2-a]isoquinolin-9-yl 3-nitrobenzenesulfonate]",2.94 ± 0.13 Fold of control
5,"COc1ccc2c(c1OS(=O)(=O)c1sc(NC(C)=O)nc1C)CN1CCc3cc4c(cc3C1C2)OCO4 (centres unmarked) [Compound 93, 10-methoxy-5,6,7,8,13,13a-hexahydro-2H-1,3-dioxolano [4,5-g]isoquinolino[3,2-a]isoquinolin-9-yl 2-(acetylamino)-4-methyl-1,3-thiazole-5-sulfonate]",1.42 ± 0.16 Fold of control
6,"COc1cc2c(cc1OCc1ccccc1)CCN1Cc3c(ccc(OC)c3OS(=O)(=O)c3ccccc3)CC21 (centres unmarked) [Compound 95, 2,10-dimethoxy-3-(phenylmethoxy)-5,6,7,8,13,13a-hexahydroisoquinolino[2,1-b]isoquinolin-9-yl benzenesulfonate]",1.43 ± 0.04 Fold of control
7,"COc1ccc2c(c1OS(=O)(=O)c1cccc3c(N(C)C)cccc13)CN1CCc3cc4c(cc3C1C2)OCO4 (centres unmarked) [Compound 89, 10-methoxy-5,6,7,8,13,13a-hexahydro-2H-1,3-dioxolano [4,5-g]isoquinolino[3,2-a] isoquinolin-9-yl 5-(dimethylamino)naphthalene-sulfonate]",1.92 ± 0.40 Fold of control
8,"COc1ccc2c(c1OS(=O)(=O)c1cccnc1)CN1CCc3cc4c(cc3C1C2)OCO4 (centres unmarked) [Compound 101, 10-methoxy-5,6,7,8,13,13a-hexahydro-2H-1,3-dioxolano [4,5-g]isoquinolino[3,2-a]isoquinolin-9-yl pyridine-3-sulfonate]",1.97 ± 0.00 Fold of control
9,"COc1ccc2c(c1OC(=O)Nc1ccccc1)CN1CCc3cc4c(cc3C1C2)OCO4 (centres unmarked) [Compound 61, (10-methoxy(5,6,7,8,13,13a-hexahydro-2H-1,3-dioxolano[4,5-g]isoquinolino[3,2-a]isoquinolin-9-yloxy))-N-benzamide]",1.33 ± 0.53 Fold of control
10,"COc1ccc(S(=O)(=O)Oc2c(OC)ccc3c2CN2CCc4cc5c(cc4C2C3)OCO5)cc1OC (centres unmarked) [Compound 86, 9-(3,4-dimethoxy-benzenesulfonyloxy)-10-methoxy-5,8,13,13a-tetrahydro-6H-[1,3]dioxolo[4,5-g]isoquino[3,2-a]isoquinoline]",2.48 ± 0.62 Fold of control
11,"COc1ccc2c(c1OCCN1CCOCC1)CN1CCc3cc4c(cc3C1C2)OCO4 (centres unmarked) [Compound 88, 9-O-2-(1′-morpholine-ethyl)-10-methoxy-5,8,13,13a-tetrahydro-6H-[1,3]dioxolo[4,5-g]isoquino[3,2-a]isoquinoline]",1.93 ± 0.24 Fold of control
12,"COc1ccc2c(c1OS(=O)(=O)c1ccc(F)cc1F)CN1CCc3cc4c(cc3C1C2)OCO4 (centres unmarked) [Compound 59, 10-methoxy-5,6,7,8,13,13a-hexahydro-2H-1,3-dioxolano[4,5-g]isoquinolino[3,2-a]isoquinolin-9-yl 2,4-difluorobenzenesulfonate]",3.73 ± 0.10 Fold of control
13,"COc1ccc2c(c1OS(=O)(=O)c1ccc(C)cc1)CN1CCc3cc4c(cc3C1C2)OCO4 (centres unmarked) [Compound 57, 10-methoxy-5,6,7,8,13,13a-hexahydro-2H-1,3-dioxolano[4,5-g]isoquinolino[3,2-a]isoquinolin-9-yl 4-methylbenzenesulfonate]",2.62 ± 0.17 Fold of control
14,"COc1ccc2c(c1OS(=O)(=O)c1ccc(C(F)(F)F)cc1)CN1CCc3cc4c(cc3C1C2)OCO4 (centres unmarked) [Compound 85, 9-(4-trifluoromethyl-benzenesulfonyloxy)-10-methoxy-5,8,13,13a-tetrahydro-6H-[1,3]dioxolo[4,5-g]isoquino[3,2-a]isoquinoline]",1.42 ± 0.30 Fold of control
15,"COc1cc2c(cc1OC)C1Cc3ccc(OC)c(OCc4ccccc4)c3CN1CC2 (centres unmarked) [Compound 64, 2,3,10-trimethoxy-9-(phenylmethoxy)-5,6,7,8,13,13a-hexahydroisoquinolino[3,2-a]isoquinoline]",2.82 ± 0.45 Fold of control
16,"COc1ccc2c(c1OS(=O)(=O)c1ccc([N+](=O)[O-])cc1)CN1CCc3cc4c(cc3C1C2)OCO4 (centres unmarked) [Compound 65, 10-methoxy-5,6,7,8,13,13a-hexahydro-2H-1,3-dioxolano[4,5-g]isoquinolino[3,2-a]isoquinolin-9-yl 4-nitrobenzenesulfonate]",2.58 ± 0.46 Fold of control
17,"COc1ccc2c(c1OS(=O)(=O)c1ccccc1F)CN1CCc3cc4c(cc3C1C2)OCO4 (centres unmarked) [Compound 51, 10-methoxy-5,6,7,8,13,13a-hexahydro-2H-1,3-dioxolano[4,5-g]isoquinolino[3,2-a]isoquinolin-9-yl 2-fluorobenzenesulfonate]",3.79 ± 0.33 Fold of control
18,"COc1ccc2c(c1OS(=O)(=O)c1ccc(F)cc1)CN1CCc3cc4c(cc3C1C2)OCO4 (centres unmarked) [Compound 58, 10-methoxy-5,6,7,8,13,13a-hexahydro-2H-1,3-dioxolano[4,5-g]isoquinolino[3,2-a]isoquinolin-9-yl 4-fluorobenzenesulfonate]",3.90 ± 0.01 Fold of control
19,"COc1ccc2c(c1Oc1ncc(N)cc1C)CN1CCc3cc4c(cc3C1C2)OCO4 (centres unmarked) [Compound 100, 6-(10-methoxy(5,6,7,8,13,13a-hexahydro-2H-1,3-dioxolano[4,5-g]isoquinolino[3,2-a]isoquinolin-9-yloxy))-5-methyl-3-pyridylamine]",1.44 ± 0.59 Fold of control
20,"COc1ccc2c(c1OS(=O)(=O)c1ccc(-c3ccccc3)cc1)CN1CCc3cc4c(cc3C1C2)OCO4 (centres unmarked) [Compound 37, 10-methoxy-5,6,7,8,13,13a-hexahydro-2H-1,3-dioxolano[4,5-g]isoquinolino[3,2-a]isoquinolin-9-yl 4-phenylbenzenesulfonate]",2.47 ± 0.07 Fold of control
21,"COc1ccc2c(c1OS(=O)(=O)c1cccc(F)c1)CN1CCc3cc4c(cc3C1C2)OCO4 (centres unmarked) [Compound 52, 10-methoxy-5,6,7,8,13,13a-hexahydro-2H-1,3-dioxolano[4,5-g]isoquinolino[3,2-a]isoquinolin-9-yl 3-fluorobenzenesulfonate]",3.63 ± 0.17 Fold of control
22,"COc1ccc2c(c1OS(=O)(=O)C(F)(F)F)CN1CCc3cc4c(cc3C1C2)OCO4 (centres unmarked) [Compound 90, 10-methoxy-5,6,7,8,13,13a-hexahydro-2H-1,3-dioxolano[4,5-g] isoquinolino[3,2-a] isoquinolin-9-yl (trifluoromethyl)sulfonate]",1.21 ± 0.07 Fold of control
23,"COc1ccc2c(c1OS(=O)(=O)c1cccc(C)c1)CN1CCc3cc4c(cc3C1C2)OCO4 (centres unmarked) [Compound 60, 10-methoxy-5,6,7,8,13,13a-hexahydro-2H-1,3-dioxolano[4,5-g]isoquinolino[3,2-a]isoquinolin-9-yl 3-methylbenzenesulfonate]",3.46 ± 0.75 Fold of control
24,"COc1ccc2c(c1)CN1CCc3cc4c(cc3C1C2)OCO4 (centres unmarked) [Compound 92, 10-methoxy-5,6,7,8,13,13a-hexahydro-2H-1,3-dioxolano[4,5-g]isoquinolino[3,2-a]isoquinoline]",1.52 ± 0.07 Fold of control
25,"CCOC(=O)Oc1c(OC)ccc2c1CN1CCc3cc4c(cc3C1C2)OCO4 (centres unmarked) [Compound 48, 10-methoxy-5,6,7,8,13,13a-hexahydro-2H-1,3-dioxolano[4,5-g]isoquinolino[3,2-a]isoquinolin-9-yl ethoxyformate]",1.45 ± 0.15 Fold of control
26,"COc1ccc2c(c1OS(=O)(=O)c1ccc(F)c(F)c1)CN1CCc3cc4c(cc3C1C2)OCO4 (centres unmarked) [Compound 53, 10-methoxy-5,6,7,8,13,13a-hexahydro-2H-1,3-dioxolano[4,5-g]isoquinolino[3,2-a]isoquinolin-9-yl 3,4-difluorobenzenesulfonate]",3.96 ± 0.40 Fold of control
